As usually defined, the % Inhibition is the relative decrease from the control value, in per cent. What is called inhibition is the drop in the measured response relative to a control, in per cent.

The assay has as its target T1, human full-length recombinant PKC βII (Homo sapiens, UniProt P05771).
T1 construct: Active human full-length recombinant PKC βII; purchased Invitrogen GmbH, Darmstadt, Germany
Nature of the assay: Determination of PKC βII inhibition (Caliper mobility-shift kinase assay, Fluorescein-RFARKGSLRQKNV peptide substrate). The format is biochemical. To be noted: example compounds at a final concentration of 1.14 μM (±0.15 μM). In outline: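 Compounds were tested at 1.14 μM final. Enzyme was activated by PS, DAG and CaCl2 in Hepes pH 7.4 with MgCl2, with substrate 3 μM and ATP 120 μM as pre-mix concentrations. After 60 min at 32 °C and an EDTA stop, Caliper separation gave fractional turnover, which was normalised to no-compound and no-enzyme controls.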

T1 sequence (P05771 1-673 isoform P05771-2): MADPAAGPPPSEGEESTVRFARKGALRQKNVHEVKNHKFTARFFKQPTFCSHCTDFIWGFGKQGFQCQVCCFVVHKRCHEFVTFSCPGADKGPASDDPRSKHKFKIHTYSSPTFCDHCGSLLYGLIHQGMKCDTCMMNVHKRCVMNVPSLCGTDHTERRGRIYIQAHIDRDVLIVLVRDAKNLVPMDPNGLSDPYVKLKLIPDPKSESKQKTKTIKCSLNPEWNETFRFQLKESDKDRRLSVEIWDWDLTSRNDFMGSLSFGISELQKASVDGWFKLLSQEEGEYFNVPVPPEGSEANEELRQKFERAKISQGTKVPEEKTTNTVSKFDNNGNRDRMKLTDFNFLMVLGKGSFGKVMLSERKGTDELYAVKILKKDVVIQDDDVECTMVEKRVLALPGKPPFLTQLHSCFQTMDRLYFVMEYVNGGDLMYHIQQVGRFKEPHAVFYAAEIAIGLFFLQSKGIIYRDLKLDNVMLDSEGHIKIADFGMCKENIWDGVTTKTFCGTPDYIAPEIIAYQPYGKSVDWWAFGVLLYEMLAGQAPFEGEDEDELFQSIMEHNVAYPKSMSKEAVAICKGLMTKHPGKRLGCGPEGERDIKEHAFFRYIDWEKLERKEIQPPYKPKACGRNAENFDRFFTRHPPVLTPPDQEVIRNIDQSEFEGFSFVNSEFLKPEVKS

On to `Cc1n[nH]c2nc(-c3ccc(O)cc3)cc(C(=O)NC3CC4CCC(C3)N4C)c12` [Example 201, 6-(4-Hydroxy-phenyl)-3-methyl-1H-pyrazolo[3,4-b]pyridine-4-carboxylic acid ((3R)-8-methyl-8-aza-bicyclo[3.2.1]oct-3-yl)-amide], for which the “% Inhibition” value came to 55%.

Regarding `Cc1n[nH]c2nc(-c3ccc(O)cc3)cc(C(=O)N3CCNC[C@@H]3C(C)C)c12` [Example 202, [6-(4-Hydroxy-phenyl)-3-methyl-1H-pyrazolo[3,4-b]pyridin-4-yl]-((S)-2-isopropyl-piperazin-1-yl)-methanone], the inhibition at 1.14 µM came to 101%.

On to `Cc1n[nH]c2nc(-c3ccc(O)cc3)cc(C(=O)N3CC[C@@H](C4(N)CC4)C3)c12` [Example 203, [(R)-3-(1-Amino-cyclopropyl)-pyrrolidin-1-yl]-[6-(4-hydroxy-phenyl)-3-methyl-1H-pyrazolo[3,4-b]pyridin-4-yl]-methanone], for which the inhibition at 1.14 µM was determined as 71%.

As to `Cc1n[nH]c2nc(-c3ccc(O)cc3)cc(C(=O)NC3CCNC4(CCC4)C3)c12` (stereo not shown) [Example 204, 6-(4-Hydroxy-phenyl)-3-methyl-1H-pyrazolo[3,4-b]pyridine-4-carboxylic acid (5-aza-spiro[3.5]non-8-yl)-amide], the inhibition at 1.14 µM was determined as 82%.

Regarding `COC(=O)[C@H]1CNCCN1C(=O)c1cc(-c2ccc(O)cc2)nc2[nH]nc(C)c12` [Example 206, (R)-1-[6-(4-Hydroxy-phenyl)-3-methyl-1H-pyrazolo[3,4-b]pyridine-4-carbonyl]-piperazine-2-carboxylic acid methyl ester], the inhibition at 1.14 µM is 98%.

Consider `Cc1n[nH]c2nc(-c3ccc(O)cc3)cc(C(=O)NC3CN4CCC3CC4)c12` (stereo not shown) [Example 207, 6-(4-Hydroxy-phenyl)-3-methyl-1H-pyrazolo[3,4-b]pyridine-4-carboxylic acid (1-aza-bicyclo[2.2.2]oct-3-yl)-amide], for which the inhibition at 1.14 µM stood at 94%.

In the case of `Cc1n[nH]c2nc(-c3ccc(O)cc3)cc(C(=O)N[C@@H]3CCC(=O)NC3)c12` [Example 208, 6-(4-Hydroxy-phenyl)-3-methyl-1H-pyrazolo[3,4-b]pyridine-4-carboxylic acid ((R)-6-oxo-piperidin-3-yl)-amide], the inhibition at 1.14 µM amounted to 88%.

For `CCCC[C@H]1CN(C(=O)c2cc(-c3ccc(O)cc3)nc3[nH]nc(C)c23)CCN1` [Example 209, ((S)-3-Butyl-piperazin-1-yl)-[6-(4-hydroxy-phenyl)-3-methyl-1H-pyrazolo[3,4-b]pyridin-4-yl]-methanone], the inhibition at 1.14 µM is 97%.

Regarding `CC[C@H]1CN(C(=O)c2cc(-c3ccc(O)cc3)nc3[nH]nc(C)c23)CCN1` [Example 210, ((S)-3-Ethyl-piperazin-1-yl)-[6-(4-hydroxy-phenyl)-3-methyl-1H-pyrazolo[3,4-b]pyridin-4-yl]-methanone], the inhibition at 1.14 µM was 100%.

Take `COC(=O)[C@H]1CN(C(=O)c2cc(-c3ccc(O)cc3)nc3[nH]nc(C)c23)CCN1` [Example 211, (R)-4-[6-(4-Hydroxy-phenyl)-3-methyl-1H-pyrazolo[3,4-b]pyridine-4-carbonyl]-piperazine-2-carboxylic acid methyl ester]: the inhibition at 1.14 µM came to 64%.

Regarding `COC[C@H]1CN(C(=O)c2cc(-c3ccc(O)cc3)nc3[nH]nc(C)c23)CCN1` [Example 212, [6-(4-Hydroxy-phenyl)-3-methyl-1H-pyrazolo[3,4-b]pyridin-4-yl]-((R)-3-methoxymethyl-piperazin-1-yl)-methanone], the inhibition at 1.14 µM was 94%.

`CO[C@H]1CNC[C@@H]1NC(=O)c1cc(-c2ccc(O)cc2)nc2[nH]nc(C)c12` [Example 213, 6-(4-Hydroxy-phenyl)-3-methyl-1H-pyrazolo[3,4-b]pyridine-4-carboxylic acid ((3S,4S)-4-methoxy-pyrrolidin-3-yl)-amide]: the inhibition at 1.14 µM was 94%.

As to `Cc1n[nH]c2nc(-c3ccc(O)cc3)cc(C(=O)N[C@H]3[C@@H]4CNC[C@@H]43)c12` [Example 214, 6-(4-Hydroxy-phenyl)-3-methyl-1H-pyrazolo[3,4-b]pyridine-4-carboxylic acid (3-azabicyclo[3.1.0]hex-6-yl)-amide], the inhibition at 1.14 µM came to 73%.

For `Cc1n[nH]c2nc(-c3ccc(O)cc3)cc(C(=O)N3CCN[C@@H](CC(C)C)C3)c12` [Example 215, [6-(4-Hydroxy-phenyl)-3-methyl-1H-pyrazolo[3,4-b]pyridin-4-yl]-((S)-3-isobutyl-piperazin-1-yl)-methanone], the inhibition at 1.14 µM amounted to 99%.

Regarding `Cc1n[nH]c2nc(-c3ccc(O)cc3)cc(C(=O)NCC3CCNC3)c12` (stereo not shown) [Example 216, 6-(4-Hydroxy-phenyl)-3-methyl-1H-pyrazolo[3,4-b]pyridine-4-carboxylic acid (pyrrolidin-3-ylmethyl)-amide], the inhibition at 1.14 µM stood at 92%.

Take `Cc1n[nH]c2nc(-c3ccc(O)cc3)cc(C(=O)N3CCNCC3Cc3ccccc3)c12` (stereo not shown) [Example 217, (2-Benzyl-piperazin-1-yl)-[6-(4-hydroxy-phenyl)-3-methyl-1H-pyrazolo[3,4-b]pyridin-4-yl]-methanone]: the inhibition at 1.14 µM was determined as 93%.

For the compound `Cc1n[nH]c2nc(-c3ccc(O)cc3)cc(C(=O)NCCC3CCCN3C)c12` (stereo not shown) [Example 218, 6-(4-Hydroxy-phenyl)-3-methyl-1H-pyrazolo[3,4-b]pyridine-4-carboxylic acid [2-(1-methyl-pyrrolidin-2-yl)-ethyl]-amide], the inhibition at 1.14 µM stood at 85%.

On to `Cc1n[nH]c2nc(-c3ccc(O)cc3)cc(C(=O)NC3CC4CCC(C3)N4C)c12` (stereo not shown) [Example 219, 6-(4-Hydroxy-phenyl)-3-methyl-1H-pyrazolo[3,4-b]pyridine-4-carboxylic acid (8-methyl-8-aza-bicyclo[3.2.1]oct-3-yl)-amide], for which the inhibition at 1.14 µM was 89%.

Turning to `Cc1n[nH]c2nc(-c3ccc(O)cc3)cc(C(=O)NC3CCN(C)CC3)c12` [Example 220, 6-(4-Hydroxy-phenyl)-3-methyl-1H-pyrazolo[3,4-b]pyridine-4-carboxylic acid (1-methyl-piperidin-4-yl)-amide], the inhibition at 1.14 µM is 88%.

With `Cc1n[nH]c2nc(-c3ccc(O)cc3)cc(C(=O)N3CCNC(C)C3)c12` (stereo not shown) [Example 221, [6-(4-Hydroxy-phenyl)-3-methyl-1H-pyrazolo[3,4-b]pyridin-4-yl]-(3-methyl-piperazin-1-yl)-methanone], the inhibition at 1.14 µM amounted to 100%.

`Cc1n[nH]c2nc(-c3ccc(O)cc3)cc(C(=O)N[C@@H]3CCCNC3)c12` [Example 222, 6-(4-Hydroxy-phenyl)-3-methyl-1H-pyrazolo[3,4-b]pyridine-4-carboxylic acid (R)-piperidin-3-ylamide]: the inhibition at 1.14 µM amounted to 97%.

On to `Cc1n[nH]c2nc(-c3ccc(O)cc3)cc(C(=O)NC3CC4CCCC(C3)N4C)c12` (stereo not shown) [Example 223, 6-(4-Hydroxy-phenyl)-3-methyl-1H-pyrazolo[3,4-b]pyridine-4-carboxylic acid (9-methyl-9-aza-bicyclo[3.3.1]non-3-yl)-amide], for which the inhibition at 1.14 µM stood at 74%.

Take `Cc1n[nH]c2nc(-c3ccc(O)cc3)cc(C(=O)N3CCNC[C@H]3Cc3ccccc3)c12` [Example 224, ((R)-2-Benzyl-piperazin-1-yl)-[6-(4-hydroxy-phenyl)-3-methyl-1H-pyrazolo[3,4-b]pyridin-4-yl]-methanone]: the inhibition at 1.14 µM stood at 92%.

On to `Cc1n[nH]c2nc(-c3ccc(O)cc3)cc(C(=O)N3CCNC[C@@H]3Cc3ccccc3)c12` [Example 225, ((S)-2-Benzyl-piperazin-1-yl)-[6-(4-hydroxy-phenyl)-3-methyl-1H-pyrazolo[3,4-b]pyridin-4-yl]-methanone], for which the inhibition at 1.14 µM stood at 85%.

As for `Cc1n[nH]c2nc(-c3ccc(O)cc3)cc(C(=O)N3CCC4CNCC43)c12` (stereo not shown) [Example 226, (Hexahydro-pyrrolo[3,4-b]pyrrol-1-yl)-[6-(4-hydroxy-phenyl)-3-methyl-1H-pyrazolo[3,4-b]pyridin-4-yl]-methanone], the inhibition at 1.14 µM was 95%.

As to `Cc1n[nH]c2nc(-c3ccc(O)cc3)cc(C(=O)N3C[C@H]4CC[C@@H](C3)C4N)c12` (stereo partly shown) [Example 227, (8-Amino-3-aza-bicyclo[3.2.1]oct-3-yl)-[6-(4-hydroxy-phenyl)-3-methyl-1H-pyrazolo[3,4-b]pyridin-4-yl]-methanone], the inhibition at 1.14 µM was found to be 100%.

For the compound `Cc1n[nH]c2nc(-c3ccc(O)cc3)cc(C(=O)N[C@@H]3[C@H]4CC[C@H](C4)[C@H]3CN)c12` [Example 228, 6-(4-Hydroxy-phenyl)-3-methyl-1H-pyrazolo[3,4-b]pyridine-4-carboxylic acid (3-aminomethyl-bicyclo[2.2.1]hept-2-yl)-amide], the inhibition at 1.14 µM amounted to 91%.

Take `Cc1n[nH]c2nc(-c3ccc(O)cc3)cc(C(=O)N3CCCC4CNCCC43)c12` (stereo not shown) [Example 230, [6-(4-Hydroxy-phenyl)-3-methyl-1H-pyrazolo[3,4-b]pyridin-4-yl]-(octahydro-[1,6]naphthyridin-1-yl)-methanone]: the inhibition at 1.14 µM was 93%.

Consider `Cc1n[nH]c2nc(-c3ccc(O)cc3)cc(C(=O)NC3CCC(N)CC3)c12` (stereo not shown) [Example 231, 6-(4-Hydroxy-phenyl)-3-methyl-1H-pyrazolo[3,4-b]pyridine-4-carboxylic acid (4-amino-cyclohexyl)-amide], for which the inhibition at 1.14 µM is 84%.

For `Cc1n[nH]c2nc(-c3ccc(O)cc3)cc(C(=O)N3CCNC[C@H]3C(=O)NC(C)(C)C)c12` [Example 232, (S)-1-[6-(4-Hydroxy-phenyl)-3-methyl-1H-pyrazolo[3,4-b]pyridine-4-carbonyl]-piperazine-2-carboxylic acid tert-butylamide], the inhibition at 1.14 µM turned out to be 95%.

With `Cc1n[nH]c2nc(-c3ccc(O)cc3)cc(C(=O)N3CCN[C@@H](C(C)C)C3)c12` [Example 233, [6-(4-Hydroxy-phenyl)-3-methyl-1H-pyrazolo[3,4-b]pyridin-4-yl]-((S)-3-isopropyl-piperazin-1-yl)-methanone], the inhibition at 1.14 µM stood at 95%.
